{"source": "patent US9770520B2", "about": "“Chelate nanoemulsion for MRI” (GUERBET, priority 2011, dated 2017)", "target": "T1, ∞vβ3 (Homo sapiens, UniProt P05106+P06756)", "T1 construct": "performed on HUVEC cells overexpressing ∞vβ3; endogenous in cells; host or cells: HUVEC", "assay": "IC50 by competition with echistatin 125I on HUVEC cells", "assay_type": "binding", "conditions": "competition with echistatin-125I-SIB, read-out: IC50 (nM of targeting ligand)", "data": [{"compound": "CCCCCCCCCCCCCCCCCC(=O)OCC(COP(=O)(O)OCCNC(=O)OCCOCCOCCOCCOCCOCCOCCOCCOCCOCCOCCOCCOCCOCCOCCOCCOCCOCCOCCOCCOCCOCCOCCOCCOCCOCCOCCOCCOCCOCCOCCOCCOCCOCCOCCOCCOCCOCCOCCOCCOCCOCCOCCOCCOCCNc1c(NCCNC(=O)CCCOc2cc(C)c(S(=O)(=O)CNC(NC(=O)CCCCc3ccc4c(n3)NCCC4)C(=O)O)c(C)c2)c(=O)c1=O)OC(=O)CCCCCCCCCCCCCCCCC", "note": "(stereo not shown) [Example 6]", "values": [{"measurement": "IC50", "value": 0.4, "unit": "nM"}]}]}
